# Where “and” joins values, the source holds several entries; their conditions need not be identical. Equal entries are not always repeated. Where two headings read alike, the source gives them in different places.
# Tests used:
# [1] = molecular target: AcpS (Escherichia coli, UniProt P24224); assay: AcpS activity against increasing concentration of CoA with and without DNM0547 (mode of inhibition); format: biochemical; details: Suppl Fig 2, [AcpS] 5 nM; for V(+Inhibitor): replicates
# Description: AcpS was chosen as a potential new antibiotic target for several important reasons beyond its high level of conservation across bacterial species. […] We undertook a more in-depth characterization of AcpS inhibition using DNM0547 as the test compound for this antibiotic family. The computer-aided drug design strategy used positions DNM compounds in the active site of AcpS. If DNM0547 is binding to the active site of AcpS competitive inhibition against an AcpS substrate would be predicted.
# The acpS gene was amplified from S. aureus and E. coli genomic DNA and inserted into a pET23b vector using standard recombinant DNA methodology such that the protein product would result in addition of a C-terminal 6x-His tag in frame with the AcpS open reading frames. The DNA sequences inserted in the vector were sequenced and found to be identical to the known E. coli and S. aureus acpS open reading frames. Recombinant His-Tagged AcpS expression was induced by IPTG addition and overnight culture. Cell lysate was obtained by sequential aspiration through 16, 18 and 21 G needles in a buffer of 50 mM Tris-HCl (pH 8.5), 10 mM MgCl2, 2 mM DTT, 5% glycerol, and further adjusted to pH 8.1 with MES. […] In a typical AcpS enzyme activity assay, 57 µM [^3H]acetyl-CoA, 2 µg apo-ACP, 10 mM MgCl2, 5 mM DTT, 50 mM Na phosphate (pH 7.0), and AcpS in a final volume of 10 µL were incubated at room temperature in a 1.5 mL microcentrifuge tube. At 5, 10, 15, and 20 min 2 µL of reaction were added to 750 µl 10% TCA on ice. Bovine serum albumin (BSA; 20 µl of a 25 mg/mL solution) was then added to facilitate precipitation of radiolabeled protein. The samples were centrifuged at 12,000 × g for 5 min. Supernatants were removed, and the pellets were rinsed twice with 750 µl of 10% trichloroacetic acid. Pellets were resuspended in 50 µl of formic acid and transferred to scintillation vials. 2 mL of scintillation fluid was added, and the amount of [^3H]-labeled holo-ACP formed was quantified by liquid scintillation counting. The enzymatic reaction proceeded in a linear manner depending on time (10–40 min) and enzyme concentration (1–5 nM). Routinely, each data point was determined at least by triplicate.
# Supplementary Figure 2. […] AcpS enzyme activity was […]
# determined versus using purified AcpS and increasing concentrations of CoA in the presence and absence of 8 µM DNM0547. Data are the mean values +/ - SD of three separate experiments performed in triplicate from three separate enzyme preparation. GraphPad Prism was used to determine V max and Km values.
# [2] = tested on: MRSA (ATCC 33591); assay: MIC, CLSI broth microdilution; format: cell-based, S. aureus; details: three individual replicates
# Procedure: The medium employed for the assay was Mueller Hinton II Broth (MHB II; Becton-Dickinson, Sparks, MD, USA). Agar plates used for the organisms were trypticase soy agar plus 5% sheep blood (BD; Sparks, MD, USA). MIC assay plates were prepared using the CLSI broth microdilution procedure. Automated liquid handlers (Multidrop 384, Biomek 2000 and Biomek FX) were used to conduct serial dilutions and liquid transfers. A standardized inoculum of each organism was prepared per CLSI methods. Suspensions were prepared to equal a 0.5 McFarland standard, followed by a 1:20 dilution in test media. The inocula were dispensed into sterile reservoirs divided by length (Beckman Colter) and the Biomek 2000 was used to inoculate the plates. Daughter plates were placed on the Biomek 2000 work surface in reverse orientation so that inoculation took place from low to high drug concentration. The Biomek 2000 delivered 10 μL of the diluted suspension into each well. These inoculations yielded a final cell concentration in the daughter plates of ~5 × 10^5 colony-forming units/mL in each well. The wells of the daughter plates ultimately contained 185 μL of broth, 5 μL of drug solution, and 10 μL of bacterial inoculum. Plates were covered with a sterile lid on the top plate, placed in plastic bags, and incubated at 35 °C for ~18 h. The microplates were viewed from the bottom using a plate viewer and the MIC was read. The MIC was recorded as the lowest concentration of drug that inhibited visible growth of the organism. Uninoculated solubility control plates were also observed for evidence of drug precipitation.
# [3] = in vitro; format: cell-based
# Procedure: (§1) Stock solutions of the test agents were prepared in DMSO (40 mg/mL) and stored at −20 °C until use. AlamarBlue HS™ cell viability reagent was acquired from Invitrogen (Cat # A50100, Carlsbad, CA). COS7 and HEK293 cells (obtained from ATCC) were cultured and tested at 37 °C in a 5% CO2/100% humidity environment in DMEM media supplemented with 10% fetal bovine serum. Cells were trypsinized, centrifuged, resuspended in cell media, counted on a hemacytometer, and diluted to an appropriate cell density to give the desired number of cells per 300 μl media. Cells were then loaded into 48-well cell culture plates (3548; Corning, Inc.); 300 μl/well at 60,000 cells per well. The cell density was determined in preliminary tests to give linear AlamarBlue HS™ readings over a 3.5 h period for HEK293 cells and 2 h period for COS7 cells after 2 days of growth; 2 wells per plate were loaded with 300 μl/well of cell-free media to provide background readings. Plates were cultured overnight, after which test agent solutions were prepared in media at the highest test concentration (100 ug/mL) and at five serial dilutions, each containing 0.25% DMSO and 0.125% Kolliphor® EL (Cat# 27963, Sigma Aldrich). The compounds concentrations were then loaded in separate columns via 300 μl/well. […] Normalized values representing the amount of AlamarBlue converted to its […] form were calculated for each well using background-corrected absorbances as described by the Alamar-Blue HS protocol information packet available from Invitrogen Technical Support. The fraction of control viability for each agent concentration with each cell line was then determined by the ratio of normalized values for the treated wells to the control wells. […] Values were determined by linear interpolation of fraction of control growth against concentration for the test agent concentrations.
# [4] = tested on: COS7 cells; assay: cells; format: cell-based; details: for IC50: Chlorocebus aethiops, COS-7, COS7 cells, 24 hrs
# Procedure: as §1
# [5] = tested on: HEK293 cells; assay: cells; format: cell-based; details: Homo sapiens, Hek293 cells, 24 hrs
# Procedure: as §1
# [6] = read-out: IC50 (cell viability)
# [7] = read-out: Log IC50 (cell viability) (converted)
# AcpS, sequence (P24224 2-126): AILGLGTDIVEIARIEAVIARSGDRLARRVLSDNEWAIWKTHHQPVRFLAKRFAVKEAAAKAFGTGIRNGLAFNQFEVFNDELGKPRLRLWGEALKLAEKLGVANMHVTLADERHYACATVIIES
smiles,measurement,setting,value
CC(C)c1cc(Cl)ccc1-c1cc(-c2nnn[nH]2)c(-c2ccc(Cl)cc2C(C)C)s1 [DNM0547],V(+Inhibitor) Mean,[1]; Acetyl CoA 0.06 mM,20.55 nM/min
same,V(+Inhibitor),[1]; Acetyl CoA 0.06 mM,19.96 nM/min and 23.46 nM/min and 18.23 nM/min
same,V(+Inhibitor) Mean,[1]; Acetyl CoA 0.24 mM,101.48 nM/min
same,V(+Inhibitor),[1]; Acetyl CoA 0.24 mM,97.72 nM/min and 105.12 nM/min and 101.61 nM/min
same,V(+Inhibitor) Mean,[1]; Acetyl CoA 0.48 mM,125.64 nM/min
same,V(+Inhibitor),[1]; Acetyl CoA 0.48 mM,122.32 nM/min and 124.81 nM/min and 129.79 nM/min
same,V(+Inhibitor) Mean,[1]; Acetyl CoA […],57.60 nM/min
same,MIC,[2],2 µg/mL
same,CC50 at 24 h,[3]; African green monkey,21 µg/mL
same,CC50 at 24 h,[3]; human,41 µg/mL
same,IC50,[4]; [6],21.2 µg/mL
same,IC50,[4]; [7],21.2 µg/mL
same,Fluorescence (FI),"[4]; Suppl Fig 9, COS7 cells, Alamar Blue HS, Conc. 40000 ng/ml",261 FI
same,IC50,[5]; [6],41.5 µg/mL
same,IC50,[5]; [7],41.5 µg/mL
